# According to PMC4992173, “Divergent synthesis and identification of the cellular targets of deoxyelephantopins” (Nature Communications, 2016):
# Target: T1, Zinc finger protein 346 (ZNF346) (Homo sapiens, UniProt Q9UL40)
# T1 construct: 1,522 proteins were enriched from MCF7 cells by 10 μM probe 24c; endogenous in cells; host or cells: MCF7
# Assay: In situ competitive profiling in live MCF7 cells (LFQ): ZNF346
# Assay type: cell-based
# Conditions: 4 h, then 10 µM 24c, n=4
# Description: In our efforts to determine the direct molecular targets of deoxyelephantopin we first performed a gel-based competitive in situ proteomic profiling assay[41] […] While the greater conformational flexibility of probe 24c could potentially lead to more promiscuous target engagement relatively to deoxyelephantopin, it was favoured based on the fact that an alkyne moiety appended to the rigid scaffold of deoxyelephantopin may hinder some of its interactions. MCF7 cells were pretreated with various concentrations of deoxyelephantopin for 4 h, harvested, lysed and the lysates were treated with the fluorogenic probe 24c-Cy3 (10 μM; Supplementary Fig. 10). […] Furthermore, cells were pretreated with 20 μM concentration of deoxyelephantopin or 24c and the proteomic profiles were compared (Fig. 6b, Supplementary Fig. 11). Multiple bands were detected that were equally competed by both DEP and 24c, thus again confirming that 24c can be used as an acceptable clickable analogue of deoxyelephantopin in pulldown assays. Having established the optimal labelling conditions by SDS–PAGE, we next carried out a mass spectrometry-based competitive profiling assay[42] coupled with the method of stable isotope labelling of amino acids in culture (SILAC)[43]. […]
# Figure 6 Proteome-wide identification of deoxyelephantopin targets. […] Quantification was performed using label-free quantification (LFQ) method (n=4). […]
# T1 sequence (Q9UL40 whole entry): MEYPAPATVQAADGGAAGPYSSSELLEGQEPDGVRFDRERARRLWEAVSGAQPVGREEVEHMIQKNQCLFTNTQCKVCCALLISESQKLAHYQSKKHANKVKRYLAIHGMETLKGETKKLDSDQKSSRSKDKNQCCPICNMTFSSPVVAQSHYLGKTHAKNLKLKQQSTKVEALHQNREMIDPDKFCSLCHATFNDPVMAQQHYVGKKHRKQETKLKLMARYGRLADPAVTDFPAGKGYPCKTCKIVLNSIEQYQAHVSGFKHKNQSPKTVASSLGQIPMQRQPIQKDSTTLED
smiles,measurement,value
C=C(C)C(=O)O[C@H]1CC2=C[C@@H](C/C(C)=C/[C@H]3OC(=O)C(=C)[C@H]13)OC2=O [deoxyelephantopin],LFQ ratio 20 µM Deoxyelephantopin/DMSO with 24c,0.00
